Data taken from patent US20080269279A1, “Substituted furo[2,3-B] pyridine derivatives as cannabinoid-1 receptor modulators” (priority 2007, published 2008).
Structures can show the parent of a compound that is named as a salt.

tested on: human GABA α1β3β2 receptors; assay: GABAa, 3H-muscimol binding assay; conditions: activity at 10 μM as percentage of activity of control compound P18 at 10 μM (increase of 3H-muscimol binding)
Description: Membranes from recombinant Ltk cells expressing human GABA α1β3β2 receptors were suspended in an ice-cold solution of 100 mM KCl, 10 mM KH2PO4, adjusted to pH=7.4 with 1 M KOH. Tritiated muscimol (PerkinElmer, Wellesley, Mass.) at a concentration of 2 nM, and serial five-fold dilutions of test compounds at 10 μM, 2.0 μM, 400 nM, 80 nM, 16 nM, 3.2 nM, 0.64 nM and 0.13 nM were mixed in 96-well plates containing 200 μL of membrane suspension. Cold muscimol and compound P18 were used as negative and positive controls respectively. The assay mixture was incubated at 4° C. for 2 hours, then harvested on GF/C filter plates and washed with ice-cold 50 mM Tris-Ci buffer. The filter plates were dried and counted in a Wallac MicroBeta® Trilux detector (Model 1450-030; PerkinElmer, Wellesley, Mass.), and the data were downloaded and analyzed using Prism 3.0. The activity of compound P18 at 10 μM was used as reference for the test compounds, and it was expressed as increasing ^3H-muscimol binding by 100%, whereas cold muscimol at 2 μM antagonized ^3H-muscimol binding by 100%. The tested compound's activity at 10 μM was expressed as a percentage of compound P18's activity at 10 μM.
As a reference, the parent compound (the compound not substituted with a R^4 heteroaryl, such as pyrazole or 1,2,4-oxadiazole, as indicated below) is also shown with its Gamma Amino Butyric Acid (GABA) Receptor activity. […] As a result, the compounds of the present invention in which R^4 is a heteroaryl, such as pyrazole or 1,2,4-oxadiazole, have the unexpected benefits of minimizing off target activity at the GABA receptor.
Note: % GABA is defined as the GABA activity of the indicated compound expressed as a percentage of the activity of control compound P18. NA=data not available.

% GABA Example [%] | SMILES
12 | CC(=O)Nc1c(C(=O)C(C)(C)C)oc2nc(-c3ccc(-c4cn[nH]c4)cc3Cl)c(-c3ccc(Cl)cc3)cc12 [Example 4, N-[5-(4-Chlorophenyl)-6-[2-chloro-4-(1H-pyrazol-4-yl)phenyl]-2-(2,2-dimethylpropanoyl)furo[2,3-b]pyridin-3-yl]acetamide]
11 | CCC(=O)c1oc2nc(-c3ccc(-c4cn[nH]c4)cc3Cl)c(-c3ccc(Cl)cc3)cc2c1NC(C)=O [Example 5, N-{5-(4-Chlorophenyl)-6-[2-chloro-4-(1H-pyrazol-4-yl)phenyl]-2-propionylfuro[2,3-b]pyridin-3-yl}acetamide]
3 | CC(C)C(=O)Nc1c(C(=O)C(C)(C)C)oc2nc(-c3ccc(-c4cn[nH]c4)cc3Cl)c(-c3ccc(Cl)cc3)cc12 [Example 6, N-[5-(4-Chlorophenyl)-6-[2-chloro-4-(1H-pyrazol-4-yl)phenyl]-2-(2,2-dimethylpropanoyl)furo[2,3-b]pyridin-3-yl]-2-methylpropanamide]
26 | CCC(=O)c1oc2nc(-c3ccc(-c4cn[nH]c4)cc3Cl)c(-c3ccc(Cl)cc3)cc2c1N [Example 8, 1-{3-Amino-5-(4-chlorophenyl)-6-[2-chloro-4-(1H-pyrazol-4-yl)phenyl]furo[2,3-b]pyridin-2-yl}propan-1-one]
30 | Cc1c(C(=O)C(C)(C)O)oc2nc(-c3ccc(-c4cn[nH]c4)cc3Cl)c(-c3ccc(Cl)cc3)cc12 [Example 9, 1-{5-(4-Chlorophenyl)-6-[2-chloro-4-(1H-pyrazol-4-yl)phenyl]-3-methylfuro[2,3-b]pyridin-2-yl}-2-hydroxy-2-methylpropan-1-one]
9 | Cc1c(C(=O)C(C)(C)C)oc2nc(-c3ccc(-c4cn[nH]c4)cc3Cl)c(-c3ccc(Cl)cc3)cc12 [Example 10, 1-{5-(4-Chlorophenyl)-6-[2-chloro-4-(1H-pyrazol-4-yl)phenyl]-3-methylfuro[2,3-b]pyridin-2-yl}-2,2-dimethylpropan-1-one]
51 | Cc1c(C(=O)CC(C)C)oc2nc(-c3ccc(-c4cn[nH]c4)cc3Cl)c(-c3ccc(Cl)cc3)cc12 [Example 12, 1-{5-(4-Chlorophenyl)-6-[2-chloro-4-(1H-pyrazol-4-yl)phenyl]-3-methylfuro[2,3-b]pyridin-2-yl}-3-methylbutan-1-one]
15 | CCC(=O)c1oc2nc(-c3ccc(-c4cn[nH]c4)cc3Cl)c(-c3ccc(Cl)cc3)cc2c1NC(=O)C(C)(C)O [Example 13, N-{5-(4-Chlorophenyl)-6-[2-chloro-4-(1H-pyrazol-4-yl)phenyl]-2-propionylfuro[2,3-b]pyridin-3-yl}-2-hydroxy-2-methylpropanamide]
13 | C[C@H](O)C(=O)Nc1c(C(=O)C(C)(C)C)oc2nc(-c3ccc(-c4cn[nH]c4)cc3Cl)c(-c3ccc(Cl)cc3)cc12 [Example 14, (2S)-N-[5-(4-Chlorophenyl)-6-[2-chloro-4-(1H-pyrazol-4-yl)phenyl]-2-(2,2-dimethylpropanoyl)furo[2,3-b]pyridin-3-yl]-2-hydroxypropanamide]
13 | CCC(=O)c1oc2nc(-c3ccc(-c4cn[nH]c4)cc3Cl)c(-c3ccc(Cl)cc3)cc2c1NC(=O)[C@H](C)O [Example 15, (2S)-N-{5-(4-Chlorophenyl)-6-[2-chloro-4-(1H-pyrazol-4-yl)phenyl]-2-propionylfuro[2,3-b]pyridin-3-yl}-2-hydroxypropanamide]
11 | CC(C)(C)C(=O)c1oc2nc(-c3ccc(-c4cn[nH]c4)cc3Cl)c(-c3ccc(Cl)cc3)cc2c1NC(=O)C(C)(C)O [Example 16, N-[5-(4-Chlorophenyl)-6-[2-chloro-4-(1H-pyrazol-4-yl)phenyl]-2-(2,2-dimethylpropanoyl)furo[2,3-b]pyridin-3-yl]-2-hydroxy-2-methylpropanamide]
36 | CCC(=O)c1oc2nc(-c3ccc(-c4cn[nH]c4)cc3Cl)c(-c3ccc(Cl)cc3)cc2c1NC(=O)CO [Example 17, N-{5-(4-Chlorophenyl)-6-[2-chloro-4-(1H-pyrazol-4-yl)phenyl]-2-propionylfuro[2,3-b]pyridin-3-yl}-2-hydroxyacetamidetrifluoroacetate (salt)]
26 | CC(=O)Nc1c(C(=O)C(C)(C)O)oc2nc(-c3ccc(-c4cc[nH]n4)cc3Cl)c(-c3ccc(Cl)cc3)cc12 [Example 18, N-[5-(4-Chlorophenyl)-6-[2-chloro-4-(1H-pyrazol-3-yl)phenyl]-2-(2-hydroxy-2-methylpropanoyl)furo[2,3-b]pyridin-3-yl]acetamide]
16 | CC(=O)Nc1c(C(=O)C(C)(C)C)oc2nc(-c3ccc(-c4cc[nH]n4)cc3Cl)c(-c3ccc(Cl)cc3)cc12 [Example 19, N-[5-(4-Chlorophenyl)-6-[2-chloro-4-(1H-pyrazol-3-yl)phenyl]-2-(2,2-dimethylpropanoyl)furo[2,3-b]pyridin-3-yl]acetamide]
13 | CC(C)(C)C(=O)c1oc2nc(-c3ccc(-c4cc[nH]n4)cc3Cl)c(-c3ccc(Cl)cc3)cc2c1C(N)=O [Example 20, 5-(4-Chlorophenyl)-6-[2-chloro-4-(1H-pyrazol-3-yl)phenyl]-2-(2,2-dimethylpropanoyl)furo[2,3-b]pyridine-3-carboxamide]
27 | CC(C)(O)C(=O)c1oc2nc(-c3ccc(-c4cc[nH]n4)cc3Cl)c(-c3ccc(Cl)cc3)cc2c1N [Example 21, 1-{3-Amino-5-(4-chlorophenyl)-6-[2-chloro-4-(1H-pyrazol-3-yl)phenyl]furo-[2,3-b]pyridin-2-yl}-2-hydroxy-2-methylpropan-1-one]
18 | CC(C)C(=O)c1oc2nc(-c3ccc(-c4cc[nH]n4)cc3Cl)c(-c3ccc(Cl)cc3)cc2c1N [Example 22, 1-{3-Amino-5-(4-chlorophenyl)-6-[2-chloro-4-(1H-pyrazol-3-yl)phenyl]furo-[2,3-b]pyridin-2-yl}-2-methylpropan-1-one]
24 | Cc1c(C(=O)C(C)(C)O)oc2nc(-c3ccc(-c4cc[nH]n4)cc3Cl)c(-c3ccc(Cl)cc3)cc12 [Example 23, 1-{5-(4-Chlorophenyl)-6-[2-chloro-4-(1H-pyrazol-3-yl)phenyl]-3-methylfuro[2,3-b]pyridin-2-yl}-2-hydroxy-2-methylpropan-1-one]
13 | Cc1c(S(=O)(=O)C(C)(C)C)oc2nc(-c3ccc(-c4cc[nH]n4)cc3Cl)c(-c3ccc(Cl)cc3)cc12 [Example 24, 2-(Tert-butylsulfonyl)-5-(4-chlorophenyl)-6-[2-chloro-4-(1H-pyrazol-3-yl)phenyl]-3-methylfuro[2,3-b]pyridine]
35 | Cc1c(C(=O)C(C)C)oc2nc(-c3ccc(-c4cc[nH]n4)cc3Cl)c(-c3ccc(Cl)cc3)cc12 [Example 25, 1-{5-(4-Chlorophenyl)-6-[2-chloro-4-(1H-pyrazol-3-yl)phenyl]-3-methylfuro[2,3-b]pyridin-2-yl}-2-methylpropan-1-one]
28 | CCC(=O)c1oc2nc(-c3ccc(-c4cc[nH]n4)cc3Cl)c(-c3ccc(Cl)cc3)cc2c1C [Example 26, 1-{5-(4-Chlorophenyl)-6-[2-chloro-4-(1H-pyrazol-3-yl)phenyl]-3-methylfuro[2,3-b]pyridin-2-yl}propan-1-one]
29 | CC(C)(C)C(=O)c1oc2nc(-c3ccc(-c4cc[nH]n4)cc3Cl)c(-c3ccc(Cl)cc3)cc2c1NC(=O)CO [Example 27, N-[5-(4-Chlorophenyl)-6-[2-chloro-4-(3H-pyrazol-5-yl)phenyl]-2-(2,2-dimethyl-propanoyl)furo[2,3-b]pyridin-3-yl]-2-hydroxyacetamide]
16 | CC(C)C(=O)c1oc2nc(-c3ccc(-c4cc[nH]n4)cc3Cl)c(-c3ccc(Cl)cc3)cc2c1N1CCCC1=O [Example 28, 1-{5-(4-Chlorophenyl)-6-[2-chloro-4-(1H-pyrazol-3-yl)phenyl]-2-isobutyrylfuro[2,3-b]pyridin-3-yl}pyrrolidin-2-one]
20 | CNC(=O)c1c(C(=O)C(C)(C)C)oc2nc(-c3ccc(-c4cc[nH]n4)cc3Cl)c(-c3ccc(Cl)cc3)cc12 [Example 29, 5-(4-Chlorophenyl)-6-[2-chloro-4-(1H-pyrazol-3-yl)phenyl]-2-(2,2-dimethylpropanoyl)-N-methylfuro[2,3-b]pyridine-3-carboxamide]
19 | CC(=O)n1cc(-c2ccc(-c3nc4oc(C(=O)C(C)(C)O)c(N)c4cc3-c3ccc(Cl)cc3)c(Cl)c2)cn1 [Example 30, 1-[6-[4-(1-Acetyl-1H-pirazol-4-yl)-2-chlorophenyl]-3-amino-5-(4-chlorophenyl)furo[2,3-b]pyridin-2-yl]-2-hydroxy-2-methylpropan-1-one]
30 | CC(C)(O)C(=O)c1oc2nc(-c3ccc(-c4cn[nH]c4)cc3Cl)c(-c3ccc(Cl)cc3)cc2c1NC(=O)CO [Example 31, N-[5-(4-Chlorophenyl)-6-[2-chloro-4-(1H-pyrazol-4-yl)phenyl]-2-(2-hydroxy-2-methylpropanoyl)-furo[2,3-b]pyridin-3-yl]-2-hydroxyacetamide]
